One block for each molecule: values may come before it. Activity calls are given as the source filed them. No cut-off for these calls is given here.
What was measured:
[1] = tested on: MDA-MB-231; assay: Induction of apoptosis in human MDA-MB-231 cells assessed as late apoptotic cells at 10 uM incubated for 24 hrs by annexin V-FITC and PI staining based flow cytometry analysis (reference value: 1.02 %); type: functional
[2] = Acute toxicity in Kunming mouse assessed as mortality at 200 mg/kg, ip single dose; type: organism-based; conditions: in vivo, read-out: Activity
[3] = Acute toxicity in male Kunming mouse assessed as body weight gain at 100 to 250 mg/kg, ip single dose measured up to 2 weeks; type: organism-based; conditions: in vivo, 336 h, dose 100-250 mg/kg
[4] = Acute toxicity in female Kunming mouse assessed as drug tolerance at 100 to 250 mg/kg, ip single dose measured up to 2 weeks; type: organism-based; conditions: in vivo, 336 h, dose 100-250 mg/kg
[5] = Acute toxicity in male Kunming mouse assessed as drug tolerance at 100 to 250 mg/kg, ip single dose measured up to 2 weeks; type: organism-based; conditions: in vivo, 336 h, dose 100-250 mg/kg
[6] = tested on: MDA-MB-231; assay: Induction of apoptosis in human MDA-MB-231 cells assessed as early apoptotic cells at 10 uM incubated for 24 hrs by annexin V-FITC and PI staining based flow cytometry analysis (reference value: 4.66 %); type: functional
[7] = Toxicity in orthotopic mouse inoculated with mouse 4T1 cells assessed as appearance of lesions in heart at 10 mg/kg, ip administered every day measured after 14 days by hematoxylin and eosin staining based assay; type: organism-based; conditions: in vivo, 336 h, time 14 day
[8] = Acute toxicity in Kunming mouse assessed as mortality at 150 mg/kg, ip single dose; type: organism-based; conditions: in vivo, read-out: Activity
[9] = tested on: MDA-MB-231; assay: Induction of cell cycle arrest in human MDA-MB-231 cells assessed as accumulation of cells in G1 phase at 10 uM incubated for 24 hrs by PI staining based flow cytometry analysis (reference value: 74.44 %); type: functional
[10] = tested on: MDA-MB-231; assay: Induction of apoptosis in human MDA-MB-231 cells assessed as necrotic cells at 10 uM incubated for 24 hrs by annexin V-FITC and PI staining based flow cytometry analysis (reference value: 0.68 %); type: functional
[11] = tested on: MDA-MB-231; assay: cells; type: functional, cell-based; conditions: Homo sapiens, MDA-MB-231, 74 h
Description: Antiproliferative activity against human MDA-MB-231 cells assessed as inhibition of cell growth measured after 74 hrs by SRB assay

[12] = Acute toxicity in female Kunming mouse assessed as clinical signs of toxicity in eyes at 100 to 250 mg/kg, ip single dose measured up to 2 weeks; type: organism-based; conditions: in vivo, 336 h, dose 100-250 mg/kg
[13] = Acute toxicity in female Kunming mouse assessed as clinical signs of toxicity in skin at 100 to 250 mg/kg, ip single dose measured up to 2 weeks; type: organism-based; conditions: in vivo, 336 h, dose 100-250 mg/kg
[14] = tested on: MDA-MB-231; assay: Induction of cell cycle arrest in human MDA-MB-231 cells assessed as accumulation of cells in S phase at 10 uM incubated for 24 hrs by PI staining based flow cytometry analysis (reference value: 16.61 %); type: functional
[15] = Acute toxicity in male Kunming mouse assessed as clinical signs of toxicity in fur at 100 to 250 mg/kg, ip single dose measured up to 2 weeks; type: organism-based; conditions: in vivo, 336 h, dose 100-250 mg/kg
[16] = tested on: HeLa; assay: cells; type: functional, cell-based; conditions: Homo sapiens, 74 h
Description: Antiproliferative activity against human HeLa cells assessed as inhibition of cell growth measured after 74 hrs by SRB assay

[17] = tested on: 4T1; assay: Antitumor activity against mouse 4T1 cells inoculated orthotopic mouse assessed as decrease in tumor weight at 10 mg/kg, ip administered every day measured after 14 days; type: functional, organism-based; conditions: time 14.0 day
[18] = tested on: MDA-MB-231; assay: Induction of apoptosis in human MDA-MB-231 cells assessed as viable cells at 10 uM incubated for 24 hrs by annexin V-FITC and PI staining based flow cytometry analysis (reference value: 93.6 %); type: functional; conditions: read-out: Activity
[19] = Acute toxicity in male Kunming mouse assessed as clinical signs of toxicity in eyes at 100 to 250 mg/kg, ip single dose measured up to 2 weeks; type: organism-based; conditions: in vivo, 336 h, dose 100-250 mg/kg
[20] = Acute toxicity in male Kunming mouse assessed as clinical signs of toxicity in skin at 100 to 250 mg/kg, ip single dose measured up to 2 weeks; type: organism-based; conditions: in vivo, 336 h, dose 100-250 mg/kg
[21] = Toxicity in orthotopic mouse inoculated with mouse 4T1 cells assessed as appearance of lesions in spleen at 10 mg/kg, ip administered every day measured after 14 days by hematoxylin and eosin staining based assay; type: organism-based; conditions: in vivo, 336 h, time 14 day
[22] = tested on: HepG2; assay: Antiproliferative activity against human HepG2 cells assessed as inhibition of cell growth measured after 74 hrs by SRB assay; type: functional, cell-based; conditions: HepG2, 74 h
[23] = tested on: A549; assay: cells; type: functional, cell-based; conditions: Homo sapiens, A549, 74 h
Description: Antiproliferative activity against human A549 cells assessed as inhibition of cell growth measured after 74 hrs by SRB assay

[24] = Acute toxicity in Kunming mouse assessed as pathological changes in lung at 100 to 250 mg/kg, ip single dose by hematoxylin and eosin staining based assay; type: organism-based; conditions: in vivo, dose 100-250 mg/kg
[25] = Acute toxicity in Kunming mouse assessed as pathological changes in spleen at 100 to 250 mg/kg, ip single dose by hematoxylin and eosin staining based assay; type: organism-based; conditions: in vivo, dose 100-250 mg/kg
[26] = Toxicity in orthotopic mouse inoculated with mouse 4T1 cells assessed as appearance of lesions in kidney at 10 mg/kg, ip administered every day measured after 14 days by hematoxylin and eosin staining based assay; type: organism-based; conditions: in vivo, 336 h, time 14 day
[27] = Acute toxicity in Kunming mouse assessed as pathological changes in liver at 100 to 250 mg/kg, ip single dose by hematoxylin and eosin staining based assay; type: organism-based; conditions: in vivo, dose 100-250 mg/kg
[28] = Toxicity in orthotopic mouse inoculated with mouse 4T1 cells assessed as appearance of lesions in liver at 10 mg/kg, ip administered every day measured after 14 days by hematoxylin and eosin staining based assay; type: organism-based; conditions: in vivo, 336 h, time 14 day
[29] = tested on: 4T1; assay: Antitumor activity against mouse 4T1 cells inoculated orthotopic mouse assessed as change in gross appearance of tumor at 10 mg/kg, ip administered every day measured after 14 days; type: functional, organism-based; conditions: time 14.0 day
[30] = Acute toxicity in female Kunming mouse assessed as clinical signs of toxicity in fur at 100 to 250 mg/kg, ip single dose measured up to 2 weeks; type: organism-based; conditions: in vivo, 336 h, dose 100-250 mg/kg
[31] = tested on: MDA-MB-231; assay: Induction of cell cycle arrest in human MDA-MB-231 cells assessed as accumulation of cells in G2/G1 phase at 10 uM incubated for 24 hrs by PI staining based flow cytometry analysis (reference value: 1.80 %); type: functional
[32] = Toxicity in orthotopic mouse inoculated with mouse 4T1 cells assessed as side effects at 10 mg/kg, ip administered every day measured after 14 days; type: organism-based; conditions: in vivo, 336 h, time 14 day
[33] = Acute toxicity in Kunming mouse assessed as mortality at 250 mg/kg, ip single dose; type: organism-based; conditions: in vivo, read-out: Activity
[34] = tested on: 4T1; assay: Antitumor activity against mouse 4T1 cells inoculated orthotopic mouse assessed as tumor growth inhibition ratio at 10 mg/kg, ip administered every day measured after 14 days; type: functional; set-up: scale not given: the % may be the effect or the level left; conditions: time 14 day
[35] = Acute toxicity in female Kunming mouse assessed as body weight gain at 100 to 250 mg/kg, ip single dose measured up to 2 weeks; type: organism-based; conditions: in vivo, 336 h, dose 100-250 mg/kg
[36] = tested on: MDA-MB-231; assay: Induction of cell cycle arrest in human MDA-MB-231 cells assessed as accumulation of cells in G2 phase at 10 uM incubated for 24 hrs by PI staining based flow cytometry analysis (reference value: 8.95 %); type: functional
[37] = Toxicity in orthotopic mouse inoculated with mouse 4T1 cells assessed as appearance of lesions in lung at 10 mg/kg, ip administered every day measured after 14 days by hematoxylin and eosin staining based assay; type: organism-based; conditions: in vivo, 336 h, time 14 day
[38] = Acute toxicity in Kunming mouse assessed as mortality at 100 mg/kg, ip single dose; type: organism-based; conditions: in vivo
[39] = Acute toxicity in Kunming mouse assessed as pathological changes in kidney at 100 to 250 mg/kg, ip single dose by hematoxylin and eosin staining based assay; type: organism-based; conditions: in vivo, dose 100-250 mg/kg
[40] = Acute toxicity in Kunming mouse assessed as pathological changes in heart at 100 to 250 mg/kg, ip single dose by hematoxylin and eosin staining based assay; type: organism-based; conditions: in vivo, dose 100-250 mg/kg
[41] = tested on: 4T1; assay: Antitumor activity against mouse 4T1 cells inoculated orthotopic mouse assessed as apoptotic cells in tumor tissue by TUNEL assay (reference value: 3.13%); type: functional
[42] = Toxicity in orthotopic mouse inoculated with mouse 4T1 cells assessed as body weight loss at 10 mg/kg, ip administered every day measured after 14 days; type: organism-based; conditions: in vivo, 336 h, time 14 day
[43] = tested on: 4T1; assay: Antitumor activity against mouse 4T1 cells inoculated orthotopic mouse assessed as reduction in tumor volume at 10 mg/kg, ip administered every day measured after 14 days (reference value: 623 mm3); type: functional; conditions: time 14 day

Structure (SMILES): Cc1ccc(S(=O)(=O)N2C(=O)COC23C=CC(=O)C=C3)cc1
- Activity [1]: 3%
- mortality [2]: 50%
- Activity [3]: Non-Toxic
- Activity [4]: Non-Toxic
- Activity [5]: Non-Toxic
- Activity [6]: 10.9%
- Activity [7]: Non-Toxic
- mortality [8]: 30%
- Activity [9]: 65.65%
- Activity [10]: 0.72%
- IC50 [11]: 0.07 µM
- Activity [12]: Non-Toxic
- Activity [13]: Non-Toxic
- Activity [14]: 24.06%
- Activity [15]: Non-Toxic
- IC50 [16]: 0.18 µM
- Activity [17]: Active
- viability at 10 µM [18]: 85.4%
- Activity [19]: Non-Toxic
- Activity [20]: Non-Toxic
- Activity [21]: Non-Toxic
- IC50 [22]: > 10 µM
- IC50 [23]: 0.11 µM
- Activity [24]: Non-Toxic
- Activity [25]: Non-Toxic
- Activity [26]: Non-Toxic
- Activity [27]: Non-Toxic
- Activity [28]: Non-Toxic
- Activity [29]: Active
- Activity [30]: Non-Toxic
- Activity [31]: 1.8%
- Activity [32]: Non-Toxic
- mortality [33]: 60%
- Activity [34]: 39%
- Activity [35]: Non-Toxic
- Activity [36]: 10.29%
- Activity [37]: Non-Toxic
- Activity [38]: Non-Toxic
- Activity [39]: Non-Toxic
- Activity [40]: Non-Toxic
- Activity [41]: 95.64%
- Activity [42]: Non-Toxic
- Activity [43]: 376 mm3

- IC50 [11]: > 10 µM
- IC50 [16]: 0.03 µM
- IC50 [22]: > 10 µM
- IC50 [23]: 0.05 µM
Structure (SMILES): O=C1C=CC2(C=C1)OCC(=O)N2S(=O)(=O)c1ccc(F)c(F)c1

- IC50 [11]: > 10 µM
- IC50 [16]: 3.72 µM
- IC50 [22]: 0.75 µM
- IC50 [23]: > 10 µM
Structure (SMILES): Cc1ccccc1S(=O)(=O)N1C(=O)COC12C=CC(=O)C=C2

- IC50 [11]: 2.8 µM
- IC50 [16]: > 10 µM
- IC50 [22]: 0.86 µM
- IC50 [23]: > 10 µM
Structure (SMILES): O=C1C=CC2(C=C1)OCC(=O)N2S(=O)(=O)c1ccc(Cl)cc1

- IC50 [11]: > 10 µM
- IC50 [16]: > 10 µM
- IC50 [22]: > 10 µM
- IC50 [23]: > 10 µM
Structure (SMILES): O=C1C=CC2(C=C1)OCC(=O)N2S(=O)(=O)c1ccc([N+](=O)[O-])cc1

- IC50 [11]: > 10 µM
- IC50 [16]: > 10 µM
- IC50 [22]: > 10 µM
- IC50 [23]: 0.04 µM
Structure (SMILES): O=C1C=CC2(C=C1)OCC(=O)N2S(=O)(=O)c1ccc(OC(F)(F)F)cc1

- IC50 [11]: 2.1 µM
- IC50 [16]: 0.77 µM
- IC50 [22]: 0.75 µM
- IC50 [23]: > 10 µM
Structure (SMILES): O=C1C=CC2(C=C1)OCC(=O)N2S(=O)(=O)c1ccc(C(F)(F)F)cc1

Structure (SMILES): COc1ccc(/C=C\c2cc(OC)c(OC)c(OC)c2)cc1O [COMBRETASTATIN A4]
- Activity [1]: 4.95%
- Activity [6]: 20.6%
- Activity [9]: 8.4%
- Activity [10]: 0.73%
- Activity [14]: 0%
- viability at 10 µM [18]: 73.7%
- Activity [31]: 1.8%
- Activity [36]: 91.6%

- IC50 [11]: > 10 µM
- IC50 [16]: 0.18 µM
- IC50 [22]: > 10 µM
- IC50 [23]: 1.91 µM
Structure (SMILES): N#Cc1cccc(S(=O)(=O)N2C(=O)COC23C=CC(=O)C=C3)c1

- IC50 [11]: > 10 µM
- IC50 [16]: 0.27 µM
- IC50 [22]: > 10 µM
- IC50 [23]: > 10 µM
Structure (SMILES): CC1OC2(C=CC(=O)C=C2)N(S(=O)(=O)c2cccs2)C1=O (configuration not stated)

- IC50 [11]: 1.1 µM
- IC50 [16]: > 10 µM
- IC50 [22]: 0.54 µM
- IC50 [23]: > 10 µM
Structure (SMILES): Cc1ccc(S(=O)(=O)N2C(=O)C(C)OC23C=CC(=O)C=C3)cc1 (configuration not stated)
